Measured values: patent US6407125B1, “Pharmacological agent and method of treatment” (Novactyl, Inc., priority 1995, dated 2002)

Assays:
WI-38 cells [1] = experiment: Growth of WI-38 cells (total cell protein, cell number); format: cell-based; conditions: for Monolayer Protein: WI-38, fusaric acid 0.5 mM
Protocol: (§1) Cells were plated at 1.5×10^5 cells/60-mm dish; 48 hours later, the medium was removed, and new media with or without 3 mM picolinic acid was added. Total cell protein was determined at the indicated times; each point is the average of triplicate measurements from 2 cultures.
(§2) In initial experiments to examine the effects of fusaric acid on cell growth and viability, WI-38 and LoVo cells were incubated for 24 to 72 hours in medium with or without various doses of fusaric acid (0.1-1 mM). The growth of both WI-38 and LoVo cells was inhibited by 500 μM fusaric acid in a time and dose dependent manner, as shown below in Table 2.

WI-38 cells [2] = experiment: Viability of WI-38 cells (trypan blue exclusion); format: cell-based; conditions: 500 μM fusaric acid
Protocol: To examine WI-38 cell viability in greater detail, the effects of fusaric acid were studied in logarithmically growing and contact inhibited confluent cells (Tables 2 and 3). In logarithmically growing WI-38 cells approximately 76% of the cells were viable after 30 hours of treatment with fusaric acid. When the cells were treated for 78 hours, only 26% of the cell population survived the pronounced cytotoxic actions of fusaric acid.

LoVo cells [3] = experiment: Growth of LoVo cells (total cell protein, cell number, DNA synthesis); format: cell-based, human; conditions: for Monolayer Protein: fusaric acid 0.5 mM
Protocol: as §1, §2
After 30 hours of treatment with 500 μM fusaric acid, there was a prominent decrease in cell number. DNA synthesis was completely (100%) inhibited by 24 hours. When treated with 500 μM fusaric acid, the majority of the LoVo cells acquired a rounded morphology by 48 hours.
However, after 100 hours, an increase in cell number was noted after 25 additional hours.

LoVo cells [4] = experiment: Viability of LoVo cells (trypan blue exclusion); format: cell-based, human; conditions: 500 μM fusaric acid
Protocol: As in the case of WI-38, LoVo cell viability after fusaric acid treatment was investigated in logarithmically growing and confluent cells, as shown in Tables 2 and 3. In logarithmically growing LoVo cells, approximately 38% of the attached cells were viable after 30 hours of treatment with fusaric acid. When the cells were treated for 78 hours, only 4.5% of the cell population survived the pronounced cytotoxic actions of fusaric acid. […] Thus, LoVo cells are much more sensitive to the cytotoxic actions of fusaric acid in both growing and confluent population of cells in comparison to normal WI-38 cells.

KB cells [5] = experiment: Growth of KB cells; format: cell-based, human; conditions: 48 hours in 500 μM
KB cells [6] = experiment: Viability of KB cells (trypan blue exclusion); format: cell-based, human; conditions: 500 μM fusaric acid
Protocol: To examine KB cell viability in greater detail, the effects of fusaric acid were studied in logarithmically growing and confluent cells. In logarithmically growing KB cells 70% of the cells were viable after 48 hours in 500 μtM fusaric acid. […] Thus, in contrast to LoVo cells, a significant proportion of the population of growing (70%) cells and virtually all (95%) of confluent KB cells resisted the pronounced cytotoxic action of fusaric acid (See Tables 3 and 4, above).

[7] = tested on: human breast adenocarcinoma MDA-468 cell; experiment: Growth of MDA-468 cells (cell number, DNA synthesis); format: cell-based; conditions: MDA-468, 500 μM fusaric acid
Protocol: After 12-24 hours of treatment with 500 μM fusaric acid, there was no further increase in cell number. […] These floating cells were not viable. Within 30 hours of treatment there was a 65% decrease in cell number. […] After 96 hours, less than 10% of the original population remained attached to the dish and no change in cell number was noted after one additional week.

MDA-468 cells = format: cell-based, human
Protocol: As in the case of WI-38, MDA-468 cell viability after fusaric acid treatment was investigated in logarithmically growing and confluent cells. In logarithmically growing MDA-468 cells, less than 20% of the attached cells were viable after 30 hours of treatment with fusaric acid. When the cells were treated for 48 hours, only 0.1% of the cell population survived the pronounced cytotoxic actions of fusaric acid. […] Thus, MDA-468 cells are extremely sensitive to the cytotoxic actions of fusaric acid in both growing and confluent population of cells in comparison to normal WI-38 lines studied.

Prostatic adenocarcinoma = experiment: Viability of other human carcinoma cell types; format: cell-based; conditions: 48 hours of treatment
Protocol: (§3) As in previous examples, the following human cell lines were inhibited by similar concentrations of fusaric acid: Prostatic adenocarcinoma, skin carcinoma, colon carcinoma, liver adenocarcinoma and lung adenocarcinoma. For all these cell types, cell viability decreased by approximately 60% after 48 hours of treatment with fusaric acid.

colon carcinoma = experiment: Viability of other human carcinoma cell types; format: cell-based; conditions: 48 hours of treatment
Protocol: as §3

liver adenocarcinoma = experiment: Viability of other human carcinoma cell types; format: cell-based; conditions: 48 hours of treatment
Protocol: as §3

lung adenocarcinoma = experiment: Viability of other human carcinoma cell types; format: cell-based; conditions: 48 hours of treatment
Protocol: as §3

skin carcinoma = experiment: Viability of other human carcinoma cell types; format: cell-based; conditions: 48 hours of treatment
Protocol: as §3

CCCCc1ccc(C(=O)O)nc1 [fusaric acid]
Monolayer Protein (WI-38 cells [1]; 24 h): 195 μg/dish | Monolayer Protein (WI-38 cells [1]; 48 h): 275 μg/dish | Monolayer Protein (WI-38 cells [1]; 72 h): 345 μg/dish | time to resumed growth after removal of fusaric acid (WI-38 cells [1]; WI-38, 30 hours in 500 μM): 125 h | decrease in cell number after removal of fusaric acid (WI-38 cells [1]; WI-38, 30 hours in 500 μM, then 4 days in normal media): 30% | cells surviving after removal of fusaric acid (WI-38 cells [1]; WI-38, remaining cells after 30 hours in 500 μM): > 95% | % Survival (WI-38 cells [2]; WI-38, confluent cells, 48 h): 100% | % Survival (WI-38 cells [2]; WI-38, logarithmic growth, 78 h): 26% | cytotoxicity in LoVo cells (LoVo cells [3]; 1 mM fusaric acid, by 24 hours): extensive cytotoxicity | inhibition at 500 µM (LoVo cells [3]; Homo sapiens, LoVo, 24 h, read-out: inhibition of DNA synthesis): 100% | decrease in cell number (LoVo cells [3]; LoVo, 500 μM fusaric acid, within 30 hours of treatment): 60% | Monolayer Protein (LoVo cells [3]; LoVo, 24 h): 135 μg/dish | Monolayer Protein (LoVo cells [3]; LoVo, 48 h): 90 μg/dish | Monolayer Protein (LoVo cells [3]; LoVo, 72 h): 101 μg/dish | % Survival (LoVo cells [4]; confluent cells, 48 h): 40% | % Survival (LoVo cells [4]; logarithmic growth, 78 h): 4.5% | time to resumed growth after removal of fusaric acid (KB cells [5]): 27 h | viability at 500 µM (KB cells [6]; Homo sapiens, logarithmically growing, 48 hours, read-out: viable cells): 70% | % Survival (KB cells [6]; confluent cells, 48 h): 95% | inhibition at 500 µM ([7]; Homo sapiens, by 24 hr): 100% | decrease in cell number ([7]; within 30 hours): 65% | cells surviving (MDA-468 cells; MDA-468, confluent, 500 μM fusaric acid, 48 hours): 10% | viable attached cells (MDA-468 cells; MDA-468, logarithmically growing, fusaric acid, 30 hours): less than 20% | cell population surviving (MDA-468 cells; MDA-468, logarithmically growing, fusaric acid, 48 hours): 0.1% | decrease in cell viability (Prostatic adenocarcinoma): approximately 60% | decrease in cell viability (colon carcinoma): approximately 60% | decrease in cell viability (liver adenocarcinoma): approximately 60% | decrease in cell viability (lung adenocarcinoma): approximately 60% | decrease in cell viability (skin carcinoma): approximately 60%
